Assay results reported in US20230059873A1, “EXPANSION OF STEM CELLS IN SUSPENSION IN A BIOREACTOR” (REPAIRON GMBH, priority 2019, published 2023).

What was measured:
Format in all cases: cell-based, human
[1] = tested on: iPSCs (TC1133); assay: Long-term suspension culture of iPSCs in ambr15 bioreactor with automated passaging, ROCKi vs TZV (Example 1): aggregate size and expansion; conditions: for aggregate size: end of all passages except passage 0, ROCK inhibitor used during passaging
Experimental: (§1) • 13 ml with 2.5×10^5 cells/ml per vessel in passage 0; 5×10^5 cells/ml per vessel at all other passages. • Medium Change: 62% Exchange per day • Cells: TC1133, NINDS • Culture conditions: 37° C., pH 7.4, dO 23.8%, 300 rpm downstirr.
(§2) • 1. Y27632 treatment of iPSC aggregates at a final concentration of 10 μM two hours before dissociation. • 2. Two times washing with Versene: Stop of stirring for two minutes, removal of medium to 2 mL without disturbing sedimented aggregates, addition of Versene to 10 mL, starting the stirring (300 rpm, downwards) for 10 seconds. • 3. Removal of medium to 2 mL in the same way as described in the washing steps and addition of Versene to 5 mL. • 4. Stirring at 600 rpm for up to 15 min until dissociation is sufficient. […] Reduce stirring to 300 rpm. • 6. Cell count. • 7. Transfer a volume of cell suspension into a fresh ambr15 vessel resulting in a seeding concentration of 2-5×10^5 cells/mL, thereby diluting the cell dissociation reagent by addition of an excess volume (at least 5-fold) of iPS-Brew
(§3) • ambr15 cell culture 24 Disposable bioreactors, Low temp, no sparge, Part number: 001-2B81 • StemMACS iPS-Brew XF, Basal Medium, Order no.: 130-107-086 • StemMACS™ iPS-Brew XF 50× Supplement; Order no.: 130-107-087 • ROCKi Y27632; Stemolecule • Versene Solution, Cat No.: 15040-033 • Ambr15 bioreactor, Sartorius Stedim • Nucleocounter NC-200 Type 900-0201 • Cellavista Cell Imager • Flow Cytometer: BD LSR II Special Order System

[2] = tested on: iPSCs (TC1133); OCT4, TRA-1-60; assay: Expression of pluripotency-related genes at end of passages in long-term suspension culture (Example 1)
Experimental: as §1
as §2, with “iPS-Brew […]” for “iPS-Brew”

[3] = tested on: iPSCs (TC1133); OCT4, NANOG, TRA-1-60; assay: Effect of ROCKi pretreatment (4 h) on expression of pluripotency-related markers in iPSCs (Example 4)
Experimental: as §1
• 1. Y27632 treatment of iPSC aggregates at a final concentration of 10 μM two hours before dissociation. • 2. Two times washing with Versene: Stop of stirring for two minutes, removal of medium to 2 mL without disturbing sedimented aggregates, addition of Versene to 10 mL, starting the stirring (300 rpm, downwards) for 10 seconds. • 3. Removal of medium to 2 mL in the same way as described in the washing steps and addition of Versene to 5 mL. • 4. Stirring at 600 rpm for up to 15 min until dissociation is sufficient. In progress controls have to be observed microscopically to assess the right degree of dissociation. • 5. Reduce stirring to 300 rpm. • 6. Cell count. • 7. Transfer a volume of cell suspension into a fresh ambr15 vessel resulting in a seeding concentration of 2-5×10^5 cells/mL, thereby diluting the cell dissociation reagent by addition of an excess volume (at least 5-fold) of iPS-Brew
as §3
The aim of this example was to analyze the effects of ROCKi pretreatment on passaging of iPSCs in suspension. Example 4 was performed like Examples 1-3 except that the ROCKi pretreatment was performed for 4 h.

[4] = tested on: iPSCs (TC1133); assay: Effect of ROCKi pretreatment (4 h) on passaging of iPSCs in suspension (Example 4): aggregate size and expansion rate
Experimental: as §1
as §2, with “Y27632 treatment of iPSC aggregates at a final concentration of 10 μM two hours before dissociation. • 2.” left out
as §3
The aim of this example was to analyze the effects of ROCKi pretreatment on passaging of iPSCs in suspension.

[5] = day 3 after passaging, ROCKi pretreated
[6] = day 4 of passage 0 (day of passaging, cells to be pretreated)
[7] = day 5 after passaging, ROCKi pretreated
[8] = day 3 after passaging, with ROCKi pretreatment

Compound | aggregate size [1] | expansion rates of iPSCs relative to ROCKi treated cells ([1]; iPSCs passaged with TZV compared with ROCKi) | expression of pluripotency-related genes ([2]; end of passage 0, 2 and 3) | NANOG expression [3, 5] [%] | OCT4 expression [3, 5] [%] | TRA-1-60 expression [3, 5] [%] | NANOG expression [3, 6] [%] | OCT4 expression [3, 6] [%] | TRA-1-60 expression [3, 6] [%] | NANOG expression [3, 7] [%] | OCT4 expression [3, 7] [%] | TRA-1-60 expression [3, 7] [%] | aggregate size [4, 8] [μm] | expansion rate [4, 8] [fold increase] | aggregate size [4, 6] [μm] | expansion rate [4, 6] [fold increase] | expansion rate ([4]; day 5 after passaging, with ROCKi pretreatment) [fold increase] | accumulated fold increase ([1]; after 43 days, 8 passages, calculated from starting cell numbers and splitting ratios) | expression of pluripotency-related genes (OCT4, TRA-1-60) ([2]; end of every analyzed passage)
O=C(NCc1ccccc1)c1csc(Nc2ccncn2)n1 [TZV, thiazovivin] | about 200 μm | comparable | high |  |  |  |  |  |  |  |  |  |  |  |  |  |  |  | 
C[C@@H](N)[C@H]1CC[C@H](C(=O)Nc2ccncc2)CC1 [ROCKi, Y27632] | about 200 μm |  |  | 93.6 | 95.9 | 99.1 | 96.9 | 97.8 | 99.3 | 81.8 | 94.4 | 98.7 | 162.06±53 | 3.14 | 197.41±75 | 12.34 | 9.2 | 9.6×10^6 | high
